According to article PMC12122562, “Phase 1 studies of the indenoisoquinolines LMP776 and LMP744 in patients with solid tumors and lymphomas” (Cancer Chemotherapy and Pharmacology, 2025):
Entries after “also recorded” stand apart in the source; their conditions may differ. Where two headings read alike, the source gives them in different places.

How the values were obtained:
[1] = Plasma pharmacokinetics of LMP776, non-compartmental; assay type: in vivo, human; settings: for half-life / AUC(0-inf) / AUC(0-t) / Cmax / Tmax: human, plasma, intravenous
Experimental: Blood was collected during cycle 1 in the LMP744 study on C1D1 at the end of infusion (EOI), then again at 0.25, 0.5, 1, 2, 4, and 6 h after EOI. Blood was also collected prior to infusion and at EOI on days 2–5 during cycle 1, then again at 1 week (168 h) after C1D1 EOI. Samples were collected in EDTA tubes with 2 mL of blood per sample. Samples were centrifuged and plasma was stored at − 70 °C. Samples were analyzed using a validated LC–MS or LC–MS/MS method for each IIQ as previously described. Plasma-time data were analyzed using WinNonlin (Pharsight, Mountain View, CA). AUC values were calculated by non-compartmental analysis and end-of-infusion concentrations were measured on days 1 and 5 of cycle 1. Sample collection and analysis of LMP776 pharmacokinetics were performed as previously described.

[2] = test system: advanced, refractory solid tumors or lymphomas; test: Phase 1 trial of LMP776: tumor response (RECIST v1.1), cycles completed; assay type: in vivo, human
Experimental: Tumor responses were evaluated by serial CT scans according to RECIST v1.1 criteria. CT scans were performed every other cycle during the first year, then every 3 cycles after the first year. Toxicities associated with LMP776 were evaluated according to criteria specified in CTCAE version 4.0; toxicities associated with LMP744 were evaluated according to the criteria specified in CTCAE version 4.03 (on or before March 31, 2018) or version 5.0 (on or after April 1, 2018). Criteria for all versions can be found at https://ctep.cancer.gov/protocolDevelopment/electronic_applications/ctc.htm. Any patient who received a dose of either agent was considered eligible for toxicity evaluation.

COc1cc2c3c(n(CCCn4ccnc4)c(=O)c2cc1OC)-c1cc2c(cc1C3=O)OCO2 [LMP776]
Cl ([1]; DL1, 1 mg/m2, n=1): 2.78 L/h/m2 | Vd ([1]; DL1, 1 mg/m2, n=1): 63.4 L/m2 | Vss ([1]; DL1, 1 mg/m2, n=1): 57.9 L/m2 | Cl ([1]; DL2, 2 mg/m2, n=7): 4.0 (1.1) L/h/m2 | Vd ([1]; DL2, 2 mg/m2, n=7): 58.4 L/m2 | Vss ([1]; DL2, 2 mg/m2, n=7): 54.7 L/m2 | Cl ([1]; DL3, 3 mg/m2, n=3): 2.7 (0.5) L/h/m2 | Vd ([1]; DL3, 3 mg/m2, n=3): 37.5 L/m2 | Vss ([1]; DL3, 3 mg/m2, n=3): 35.4 L/m2 | Cl ([1]; DL4, 4.5 mg/m2, n=3): 3.7 (1.2) L/h/m2 | Vd ([1]; DL4, 4.5 mg/m2, n=3): 49.7 L/m2 | Vss ([1]; DL4, 4.5 mg/m2, n=3): 44.0 L/m2 | Cl ([1]; DL5, 6.75 mg/m2, n=3): 3.8 (1.6) L/h/m2 | Vd ([1]; DL5, 6.75 mg/m2, n=3): 48.2 L/m2 | Vss ([1]; DL5, 6.75 mg/m2, n=3): 41.7 L/m2 | Cl ([1]; DL6, 9 mg/m2, n=2): 3.4 (1.5) L/h/m2 | Vd ([1]; DL6, 9 mg/m2, n=2): 62.7 L/m2 | Vss ([1]; DL6, 9 mg/m2, n=2): 55.8 L/m2 | Cl ([1]; DL7 (MTD), 12 mg/m2, n=6): 3.2 (1.5) L/h/m2 | Vd ([1]; DL7 (MTD), 12 mg/m2, n=6): 40.7 L/m2 | Vss ([1]; DL7 (MTD), 12 mg/m2, n=6): 38.5 L/m2 | Cl ([1]; DL8, 16 mg/m2, n=7): 3.0 (1.4) L/h/m2 | Vd ([1]; DL8, 16 mg/m2, n=7): 39.5 L/m2 | Vss ([1]; DL8, 16 mg/m2, n=7): 37.1 L/m2 | half-life ([1]; 1 mg/m2, DL1, 1 mg/m2, n=1, read-out: t1/2 (converted)): 38.6 h | half-life ([1]; 2 mg/m2, DL2, 2 mg/m2, n=7, read-out: t1/2 (converted)): 20.8 h | half-life ([1]; 3 mg/m2, DL3, 3 mg/m2, n=3, read-out: t1/2 (converted)): 13.6 h | half-life ([1]; 4.5 mg/m2, DL4, 4.5 mg/m2, n=3, read-out: t1/2 (converted)): 13.8 h | half-life ([1]; 6.75 mg/m2, DL5, 6.75 mg/m2, n=3, read-out: t1/2 (converted)): 11.5 h | half-life ([1]; 9 mg/m2, DL6, 9 mg/m2, n=2, read-out: t1/2 (converted)): 31.4 h | half-life ([1]; 12 mg/m2, DL7 (MTD), 12 mg/m2, n=6, read-out: t1/2 (mean half-life) (converted)): 12.6 h | half-life ([1]; 12 mg/m2, MTD (DL7, 12 mg/m^2, n = 6), read-out: Half-life, range): 8.2 to 16 h | half-life ([1]; 16 mg/m2, DL8, 16 mg/m2, n=7, read-out: t1/2 (converted)): 13.4 h | AUC(0-inf) ([1]; DL1, 1 mg/m2, n=1): 880 ng·h/mL | AUC(0-t) ([1]; DL1, 1 mg/m2, n=1): 359 ng·h/mL | Cmax ([1]; DL1, 1 mg/m2, n=1): 46.9 ng/mL | Tmax ([1]; DL1, 1 mg/m2, n=1): 1 h | AUC(0-inf) ([1]; DL2, 2 mg/m2, n=7): 1060 ng·h/mL | AUC(0-t) ([1]; DL2, 2 mg/m2, n=7): 530 ng·h/mL | Cmax ([1]; DL2, 2 mg/m2, n=7): 64.4 ng/mL | Tmax ([1]; DL2, 2 mg/m2, n=7): 1 h | AUC(0-inf) ([1]; DL3, 3 mg/m2, n=3): 1580 ng·h/mL | AUC(0-t) ([1]; DL3, 3 mg/m2, n=3): 1150 ng·h/mL | Cmax ([1]; DL3, 3 mg/m2, n=3): 124 ng/mL | Tmax ([1]; DL3, 3 mg/m2, n=3): 1 h | AUC(0-inf) ([1]; DL4, 4.5 mg/m2, n=3): 1850 ng·h/mL | AUC(0-t) ([1]; DL4, 4.5 mg/m2, n=3): 1300 ng·h/mL | Cmax ([1]; DL4, 4.5 mg/m2, n=3): 178 ng/mL | Tmax ([1]; DL4, 4.5 mg/m2, n=3): 1 h | AUC(0-inf) ([1]; DL5, 6.75 mg/m2, n=3): 2510 ng·h/mL | AUC(0-t) ([1]; DL5, 6.75 mg/m2, n=3): 1980 ng·h/mL | Cmax ([1]; DL5, 6.75 mg/m2, n=3): 273 ng/mL | Tmax ([1]; DL5, 6.75 mg/m2, n=3): 1 h | AUC(0-inf) ([1]; DL6, 9 mg/m2, n=2): 7200 ng·h/mL | AUC(0-t) ([1]; DL6, 9 mg/m2, n=2): 2970 ng·h/mL | Cmax ([1]; DL6, 9 mg/m2, n=2): 296 ng/mL | Tmax ([1]; DL6, 9 mg/m2, n=2): 1 h | AUC(0-inf) ([1]; DL7 (MTD), 12 mg/m2, n=6): 5890 ng·h/mL | AUC(0-t) ([1]; DL7 (MTD), 12 mg/m2, n=6): 4270 ng·h/mL | Cmax ([1]; DL7 (MTD), 12 mg/m2, n=6): 523 ng/mL | Tmax ([1]; DL7 (MTD), 12 mg/m2, n=6): 1.1 h | AUC(0-inf) ([1]; DL8, 16 mg/m2, n=7): 8920 ng·h/mL | AUC(0-t) ([1]; DL8, 16 mg/m2, n=7): 6170 ng·h/mL | Cmax ([1]; DL8, 16 mg/m2, n=7): 770 ng/mL | Tmax ([1]; DL8, 16 mg/m2, n=7): 1.1 h | Dependence of half-life on dose ([1]; in vivo): did not vary with dose level; also recorded: half-life was independent of dose | Systemic exposure (AUC) versus dose level ([1]; in vivo): increased linearly with dose level | Objective responses ([2]; RECIST v1.1, n = 34): no objective responses were measured | Best response ([2]; in vivo): stable disease | Longest duration of SD ([2]; patient 45, pancreatic cancer): 9 cycles
